Assays:
[1] = test system: ventricular arrhythmias induced by chloroform; experiment: Antiarrhythmic activity: prevention of chloroform-induced ventricular flutter and fibrillation in mice; settings: for ED40 / ED50 / ED20: Mus musculus, sc, 0.5 h; for ED50: read-out: ED50 (95% confidence limit); for Therapeutic index: ratio of LD50 and ED50
Protocol: At the time when they ceased to breathe, electrocardiogram of each animal was recorded to observe the flutter and fibrillation of the ventricle.
The abnormalities of ventriculus as observed in these animals can be prevented by previous administration of a substance showing antiarrhythmic activity. A compound of this invention, at various dosages, was subcutaneously injected to mice grouped by 29-40 heads. Thirty minutes later these mice were treated with chloroform to induce arrhythmias. Prophylaxis percentages of the flutter and fibrillation of ventricle for each dosage were calculated.

ddY strain male mice = experiment: in vivo; settings: mouse
in vivo = settings: mouse

**Q.** Which ED40 [1] does the source give for Cc1ccccc1NC(=O)CC12CCCN1CCC2 [Compound 1, N-(2-methylphenyl)-8-pyrrolizidineacetamide] here?
**A.** 100 mg/kg

**Q.** What about the ED50 [1] of the same compound?
**A.** > 100 mg/kg

**Q.** And the LD50 (ddY strain male mice)?
**A.** 385 mg/kg

**Q.** With Cc1ccc(NC(=O)CC23CCCN2CCC3)cc1 [Compound 2, N-(4-methylphenyl)-8-pyrrolizidineacetamide] as the compound, how does the ED20 [1] read?
**A.** 100 mg/kg

**Q.** What about the LD50 (ddY strain male mice) of the same compound?
**A.** 413 mg/kg

**Q.** What does the source list for O=C(CC12CCCN1CCC2)Nc1ccccc1Cl [Compound 3, N-(2-chlorophenyl)-8-pyrrolizidineacetamide]?
**A.** ED20 [1]: 100 mg/kg; ED50 [1]: > 100 mg/kg; LD50 (ddY strain male mice): 347 mg/kg

**Q.** For O=C(CC12CCCN1CCC2)Nc1ccccc1Br [Compound 4, N-(2-bromophenyl)-8-pyrrolizidineacetamide], which ED50 [1] is on record?
**A.** 59 mg/kg

**Q.** And the Therapeutic index [1]?
**A.** 7.54

**Q.** What about the LD50 (ddY strain male mice) of the same compound?
**A.** 445 mg/kg

**Q.** With COc1ccccc1NC(=O)CC12CCCN1CCC2 [Compound 5, N-(2-methoxyphynyl)-8-pyrrolizidineacetamide] as the compound, how does the ED40 [1] read?
**A.** 100 mg/kg

**Q.** What about the ED50 [1] of the same compound?
**A.** > 100 mg/kg

**Q.** What about the LD50 (ddY strain male mice) of the same compound?
**A.** 381 mg/kg

**Q.** Which ED40 [1] does the source give for COc1cccc(NC(=O)CC23CCCN2CCC3)c1 [Compound 6, N-(3-methoxyphenyl)-8-pyrrolizidineacetamide] here?
**A.** 100 mg/kg

**Q.** And the ED50 [1]?
**A.** > 100 mg/kg

**Q.** What about the LD50 (ddY strain male mice) of the same compound?
**A.** 417 mg/kg

**Q.** Which results are given for COc1ccc(NC(=O)CC23CCCN2CCC3)cc1 [Compound 7, N-(4-methoxyphenyl)-8-pyrrolizidineacetamide]?
**A.** ED50 [1]: 60 mg/kg; Therapeutic index [1]: 4.80; LD50 (ddY strain male mice): 288 mg/kg

**Q.** What does the source list for Nc1ccccc1NC(=O)CC12CCCN1CCC2 [Compound 8, N-(2-aminophenyl)-8-pyrrolizidineacetamide]?
**A.** ED50 [1]: 100 mg/kg; Therapeutic index [1]: 6.33; LD50 (ddY strain male mice): 633 mg/kg

**Q.** With Cc1cccc(NC(=O)CC23CCCN2CCC3)c1C [Compound 9, N-(2,3-dimetylphenyl)-8-pyrrolizidineacetamide] as the compound, how does the ED50 [1] read?
**A.** 64 mg/kg

**Q.** And the Therapeutic index [1]?
**A.** 7.33

**Q.** What about the LD50 (ddY strain male mice) of the same compound?
**A.** 469 mg/kg

**Q.** With Cc1ccc(NC(=O)CC23CCCN2CCC3)c(C)c1 [Compound 10, N-(2,4-dimethylphenyl)-8-pyrrolizidineacetamide] as the compound, how does the ED40 [1] read?
**A.** 100 mg/kg

**Q.** And the ED50 [1]?
**A.** > 100 mg/kg

**Q.** What about the LD50 (in vivo) of the same compound?
**A.** 398 mg/kg

**Q.** For Cc1ccc(C)c(NC(=O)CC23CCCN2CCC3)c1 [Compound 11, N-(2,5-dimethylphenyl)-8-pyrrolizidineacetamide], which ED50 [1] is on record?
**A.** 72 mg/kg

**Q.** What about the Therapeutic index [1] of the same compound?
**A.** 5.56

**Q.** And the LD50 (ddY strain male mice)?
**A.** 400 mg/kg

**Q.** With Cc1cccc(C)c1NC(=O)CC12CCCN1CCC2 [Compound 12, N-(2,6-dimethylphenyl)-8-pyrrolizidineacetaminde] as the compound, how does the ED50 [1] read?
**A.** 24 mg/kg

**Q.** Which results are given for Cc1ccc(NC(=O)CC23CCCN2CCC3)cc1C [Compound 13, N-(3,4-dimethylphenyl)-8-pyrrolizidineacetamide]?
**A.** ED50 [1]: 76 mg/kg; Therapeutic index [1]: 7.36; LD50 (ddY strain male mice): 559 mg/kg

**Q.** What does the source list for Cc1cc(C)cc(NC(=O)CC23CCCN2CCC3)c1 [Compound 14, N-(3,5-dimethylphenyl)-8-pyrrolizidineacetamide]?
**A.** ED50 [1]: 52 mg/kg; Therapeutic index [1]: 6.83; LD50 (ddY strain male mice): 355 mg/kg

**Q.** Which ED50 [1] does the source give for COc1ccc(OC)c(NC(=O)CC23CCCN2CCC3)c1 [Compound 15, N-(2,5-dimethoxyphenyl)-8-pyrrolizidineacetamide] here?
**A.** 90 mg/kg

**Q.** What about the Therapeutic index [1] of the same compound?
**A.** 2.26

**Q.** And the LD50 (ddY strain male mice)?
**A.** 203 mg/kg

**Q.** What does the source list for O=C(CC12CCCN1CCC2)Nc1c(Cl)cccc1Cl [Compound 16, N-(2,6-dichlorophenyl)-8-pyrrolizidineacetamide]?
**A.** ED20 [1]: 100 mg/kg; ED50 [1]: > 100 mg/kg; LD50 (ddY strain male mice): 200 mg/kg

**Q.** What does the source list for CCc1cccc(CC)c1NC(=O)CC12CCCN1CCC2 [Compound 17, N-(2,6-diethylphenyl)-8-pyrrolizidineacetamide]?
**A.** ED50 [1]: 28 mg/kg; Therapeutic index [1]: 9.93; LD50 (ddY strain male mice): 278 mg/kg

**Q.** For Cc1cc(C)c(NC(=O)CC23CCCN2CCC3)c(C)c1 [Compound 18, N-(2,4,6-trimethylphenyl)-8-pyrrolizidineacetamide], which ED50 [1] is on record?
**A.** 34 mg/kg

**Q.** What about the Therapeutic index [1] of the same compound?
**A.** 9.09

**Q.** What about the LD50 (ddY strain male mice) of the same compound?
**A.** 309 mg/kg

Source: patent US4564624A, “8-(Substituted N-phenylcarboxamidomethyl) pyrrolizidines and use thereof as antiarrhythmics” (Suntory Ltd., priority 1982, dated 1986)
